Earlier results in publication PMC10726920 (Cancer Medicine, 2023).

How the values were obtained:
r/r ALL = system: r/r ALL; design: method as in PMID 25724525; conditions: combined with Hyper‐CVAD; cited from earlier work
ALL at first relapse = system: ALL at first relapse; design: method as in PMID 29603593; conditions: cited from earlier work
lymphoid neoplasms = system: lymphoid neoplasms; design: method as in PMID 22080480; conditions: cited from earlier work
[1] = system: r/r ALL in second relapse or greater; conditions: added to intensive chemotherapy, cited from earlier work
r/r pediatric ALL = conditions: with cyclophosphamide, etoposide, cited from earlier work

For `CO[C@H]1C[C@@H]2CC[C@@H](C)[C@@](O)(O2)C(=O)C(=O)N2CCCC[C@H]2C(=O)O[C@H]([C@H](C)C[C@@H]2CC[C@@H](OCCO)[C@H](OC)C2)CC(=O)[C@H](C)/C=C(\C)[C@@H](O)[C@@H](OC)C(=O)[C@H](C)C[C@H](C)/C=C/C=C/C=C/1C` [Everolimus], the “CR or CRi in patients with only one prior line of therapy” value (r/r ALL) is listed as “Six of 11”, the “dose‐limiting toxicity” value (r/r ALL) is listed as “G3 mucositis” and the overall response rate (r/r ALL) is listed as 33%. The patients with meningitis (ALL at first relapse; dose level 3, Two out of twelve) was 17%, the “patients obtaining remission (CR2)” value (ALL at first relapse; with multi‐agent chemotherapy, Nineteen of 22) was 86% and the DLT (ALL at first relapse; with multi‐agent chemotherapy) was “elevated liver enzymes in one patient”.

In the case of `COc1cccc2cc(-c3nc([C@H]4CC[C@H](C(=O)O)CC4)n4ncnc(N)c34)[nH]c12` [OSI‐027], the “sensitivity of ALL across a series of lymphoid neoplasms” value (lymphoid neoplasms) is listed as “most sensitive”.

In the case of `CO[C@H]1C[C@@H]2CC[C@@H](C)[C@@](O)(O2)C(=O)C(=O)N2CCCC[C@H]2C(=O)O[C@H]([C@H](C)C[C@@H]2CC[C@@H](OC(=O)C(C)(CO)CO)[C@H](OC)C2)CC(=O)[C@H](C)/C=C(\C)[C@@H](O)[C@@H](OC)C(=O)[C@H](C)C[C@H](C)/C=C/C=C/C=C/1C` [temsirolimus], the patients achieving remission ([1]; Seven of 15) is given as 47%, the “patients with minimal residual disease <0.01%” value ([1]; three patients) is given as 20% and the overall response rate (r/r pediatric ALL; 15 patients) is given as 47%. For the same compound, the “CR or CRi” value (r/r pediatric ALL) was 26%.
